According to patent US11337976B2 (Plexxikon Inc., priority 2011, dated 2022):

The compounds below were run on A375 melanoma cells (B-Raf V600E mutation) (assay: A375 (A375_P-ERK) cell activity / cell growth inhibition assay). Settings: Homo sapiens, A-375; A375 cells (text: A375_P-ERK).
Type: cell-based, human

Row | Structure (SMILES) | IC50 [µM]
1 | CCN(C)S(=O)(=O)Nc1ccc(F)c(C(=O)c2c[nH]c3ncc(-c4cnc(OC)nc4)cc23)c1F [P-0014] | < 1
2 | CCN(C)S(=O)(=O)Nc1cccc(C(=O)c2c[nH]c3ncnc(N[C@@H](C)C4CC4)c23)c1F [P-0089, 4-[[(1 S)-1-cyclopropylethyl]amino]-5-[3-[[ethyl(methyl)sulfamoyl]amino]-2-fluoro-benzoyl]-7H-pyrrolo[2,3-d]pyrimidine] | < 1
3 | O=C(c1cccc(NS(=O)(=O)N2CCCC2)c1F)c1c[nH]c2ncc(-c3cccnc3)cc12 [P-0043, N-[2-fluoro-3-[5-(3-pyridyl)-1H-pyrrolo[2,3-b]pyridine-3-carbonyl]phenyl]pyrrolidine-1-sulfonamide] | < 1
4 | Cc1ccc(-c2cnc3[nH]cc(C(=O)c4cccc(NS(=O)(=O)N5CCCC5)c4F)c3c2)cn1 [P-0045, N-[2-fluoro-3-[5-(6-methyl-3-pyridyl)-1H-pyrrolo[2,3-b]pyridine-3-carbonyl]phenyl]pyrrolidine-1-sulfonamide] | < 1
5 | CCCN(C)S(=O)(=O)Nc1ccc(F)c(C(=O)c2c[nH]c3ncc(-c4cnc(C5CC5)nc4)cc23)c1F [P-0078, 5-(2-cyclopropylpyrimidin-5-yl)-3-[2,6-difluoro-3-[[methyl(propyl)sulfamoyl]amino]benzoyl]-1H-pyrrolo[2,3-b]pyridine] | < 1
6 | CCN(C)S(=O)(=O)Nc1ccc(F)c(C(=O)c2c[nH]c3ncc(-c4ccc5nc(N)ncc5c4)cc23)c1F [P-0311, 2-amino-6-[3-[3-[[ethyl(methyl)sulfamoyl]amino]-2,6-difluoro-benzoyl]-1H-pyrrolo[2,3-b]pyridin-5-yl]quinazoline] | < 1
7 | COc1ncc(-c2cnc3[nH]cc(C(=O)c4cccc(NS(=O)(=O)N5CC(F)(F)C5)c4F)c3c2)cn1 [P-0088, 3,3-difluoro-N-[2-fluoro-3-[5-(2-methoxypyrimidin-5-yl)-1H-pyrrolo[2,3-b]pyridine-3-carbonyl]phenyl]azetidine-1-sulfonamide] | < 1
8 | CCN(C)S(=O)(=O)Nc1cccc(C(=O)c2c[nH]c3ncc(-c4ccc(C#N)c(OC)c4)cc23)c1F [P-0060, 5-(4-cyano-3-methoxy-phenyl)-3-[3-[[ethyl(methyl)sulfamoyl]amino]-2-fluoro-benzoyl]-1H-pyrrolo[2,3-b]pyridine] | < 1
9 | O=C(c1cccc(NS(=O)(=O)N2CCCC2)c1F)c1c[nH]c2ncc(C3CC3)cc12 [P-0274, N-[3-(5-cyclopropyl-1H-pyrrolo[2,3-b]pyridine-3-carbonyl)-2-fluoro-phenyl]pyrrolidine-1-sulfonamide] | < 1
10 | O=C(c1cccc(NS(=O)(=O)N2CCCC2)c1F)c1c[nH]c2ncc(-c3cc(N4CCOCC4)ncn3)cc12 [P-0321, N-[2-fluoro-3-[5-(6-morpholinopyrimidin-4-yl)-1H-pyrrolo[2,3-b]pyridine-3-carbonyl]phenyl]pyrrolidine-1-sulfonamide] | < 1
11 | O=C(c1cccc(NS(=O)(=O)N2CCCC2)c1F)c1c[nH]c2ncc(-c3cnc(N4CCCC4)nc3)cc12 [P-0109, N-[2-fluoro-3-[5-(2-pyrrolidin-1-ylpyrimidin-5-yl)-1H-pyrrolo[2,3-b]pyridine-3-carbonyl]phenyl]pyrrolidine-1-sulfonamide] | < 1
12 | CN(C)S(=O)(=O)Nc1ccc(F)c(C(=O)c2c[nH]c3ncc(-c4ccc(C5(C#N)CC5)cc4)cc23)c1F [P-0237, 5-[4-(1-cyanocyclopropyl)phenyl]-3-[3-(dimethylsulfamoylamino)-2,6-difluoro-benzoyl]-1H-pyrrolo[2,3-b]pyridine] | < 1
13 | CN1CCN(c2cc(-c3cnc4[nH]cc(C(=O)c5c(F)ccc(NS(=O)(=O)N6CCCC6)c5F)c4c3)ccn2)CC1 [P-0285, N-[2,4-difluoro-3-[5-[2-(4-methylpiperazin-1-yl)-4-pyridyl]-1H-pyrrolo[2,3-b]pyridine-3-carbonyl]phenyl]pyrrolidine-1-sulfonamide] | < 1
14 | O=C(c1c(F)ccc(NS(=O)(=O)N2CCC(F)C2)c1F)c1c[nH]c2ncc(-c3cnc(C4CC4)nc3)cc12 (stereo not shown) [P-0339, N-[3-[5-(2-cyclopropylpyrimidin-5-yl)-1H-pyrrolo[2,3-b]pyridine-3-carbonyl]-2,4-difluoro-phenyl]-3-fluoro-pyrrolidine-1-sulfonamide] | < 1
15 | CN(C)S(=O)(=O)Nc1cccc(C(=O)c2c[nH]c3ncc(-c4cnc(NC5CC5)nc4)cc23)c1F [P-0064, 5-[2-(cyclopropylamino)pyrimidin-5-yl]-3-[3-(dimethylsulfamoylamino)-2-fluoro-benzoyl]-1H-pyrrolo[2,3-b]pyridine] | < 1
16 | CC(C)NS(=O)(=O)Nc1cccc(C(=O)c2c[nH]c3ncc(I)cc23)c1F [P-0071, [2-fluoro-3-(isopropylsulfamoylamino)phenyl]-(5-iodo-1H-pyrrolo[2,3-b]pyridin-3-yl)methanone] | < 1
17 | CNS(=O)(=O)Nc1cccc(C(=O)c2c[nH]c3ncc(-c4cnc(OC)nc4)cc23)c1F [P-0026] | > 1

Row | Structure (SMILES) | IC50 [µM]
18 | CN(C)S(=O)(=O)Nc1ccc(F)c(C(=O)c2c[nH]c3ncc(-c4cnc(C5CC5)nc4)cc23)c1F [P-0238, 5-(2-cyclopropylpyrimidin-5-yl)-3-[3-(dimethylsulfamoylamino)-2,6-difluoro-benzoyl]-1H-pyrrolo[2,3-b]pyridine] | < 1
19 | CN(C)S(=O)(=O)Nc1cccc(C(=O)c2c[nH]c3ncc(-c4cnc(N5CCCC5)nc4)cc23)c1F [P-0107, 3-[3-(dimethylsulfamoylamino)-2-fluoro-benzoyl]-5-(2-pyrrolidin-1-ylpyrimidin-5-yl)-1H-pyrrolo[2,3-b]pyridine] | < 1
20 | CCN(C)S(=O)(=O)Nc1cccc(C(=O)c2c[nH]c3ncc(C#N)cc23)c1F [P-0039, 5-cyano-3-[3-[[ethyl(methyl)sulfamoyl]amino]-2-fluoro-benzoyl]-1H-pyrrolo[2,3-b]pyridine] | < 1
21 | Nc1ncc(-c2cnc3[nH]cc(C(=O)c4c(F)ccc(NS(=O)(=O)N5CCCC5)c4F)c3c2)cn1 [P-0279, N-[3-[5-(2-aminopyrimidin-5-yl)-1H-pyrrolo[2,3-b]pyridine-3-carbonyl]-2,4-difluoro-phenyl]pyrrolidine-1-sulfonamide] | > 1
22 | CCC(C)S(=O)(=O)Nc1cccc(C(=O)c2c[nH]c3ncc(-c4cnc(NC5CC5)nc4)cc23)c1F (stereo not shown) [P-0226, N-[3-[5-[2-(cyclopropylamino)pyrimidin-5-yl]-1H-pyrrolo[2,3-b]pyridine-3-carbonyl]-2-fluoro-phenyl]butane-2-sulfonamide] | < 1
23 | CCCN(C)S(=O)(=O)Nc1cccc(C(=O)c2c[nH]c3ncc(-c4cnc(C)nc4)cc23)c1F [P-0111, 3-[2-fluoro-3-[[methyl(propyl)sulfamoyl]amino]benzoyl]-5-(2-methylpyrimidin-5-yl)-1H-pyrrolo[2,3-b]pyridine] | < 1
24 | COc1ccnc(-c2cnc3[nH]cc(C(=O)c4cccc(NS(=O)(=O)N5CCCC5)c4F)c3c2)n1 [P-0325, N-[2-fluoro-3-[5-(4-methoxypyrimidin-2-yl)-1H-pyrrolo[2,3-b]pyridine-3-carbonyl]phenyl]pyrrolidine-1-sulfonamide] | < 1
25 | CCN(C)S(=O)(=O)Nc1ccc(F)c(C(=O)c2c[nH]c3ncc(-c4ccc5nc(N(C)C)ncc5c4)cc23)c1F [P-0313, 2-(dimethylamino)-6-[3-[3-[[ethyl(methyl)sulfamoyl]amino]-2,6-difluoro-benzoyl]-1H-pyrrolo[2,3-b]pyridin-5-yl]quinazoline] | < 1
26 | CCN(C)S(=O)(=O)Nc1ccc(F)c(C(=O)c2c[nH]c3ncc(-c4cnc(C5CC5)nc4)cc23)c1F [P-0240, 5-(2-cyclopropylpyrimidin-5-yl)-3-[3-[[ethyl(methyl)sulfamoyl]amino]-2,6-difluoro-benzoyl]-1H-pyrrolo[2,3-b]pyridine] | < 1
27 | COc1cc(-c2cnc3[nH]cc(C(=O)c4cccc(NS(=O)(=O)N(C)C)c4F)c3c2)ccc1C#N [P-0054, 5-(4-cyano-3-methoxy-phenyl)-3-[3-(dimethylsulfamoylamino)-2-fluoro-benzoyl]-1H-pyrrolo[2,3-b]pyridine] | < 1
28 | CCN(C)S(=O)(=O)Nc1ccc(F)c(C(=O)c2c[nH]c3ncc(-c4ccc(C(C)(C)O)nc4)cc23)c1F [P-0307, 3-[3-[[ethyl(methyl)sulfamoyl]amino]-2,6-difluoro-benzoyl]-5-[6-(1-hydroxy-1-methyl-ethyl)-3-pyridyl]-1H-pyrrolo[2,3-b]pyridine] | < 1
29 | CCN(C)S(=O)(=O)Nc1cccc(C(=O)c2c[nH]c3ncc(C4CCC4)cc23)c1F [P-0297, 5-cyclobutyl-3-[3-[[ethyl(methyl)sulfamoyl]amino]-2-fluoro-benzoyl]-1H-pyrrolo[2,3-b]pyridine] | > 1
30 | CCN(C)S(=O)(=O)Nc1cccc(C(=O)c2c[nH]c3ncc(C4CC4)cc23)c1F [P-0298, 5-cyclopropyl-3-[3-[[ethyl(methyl)sulfamoyl]amino]-2-fluoro-benzoyl]-1H-pyrrolo[2,3-b]pyridine] | > 1
31 | O=C(c1c(F)ccc(NS(=O)(=O)N2CCCC2)c1F)c1c[nH]c2ncc(-c3cnc(N4CCNCC4)nc3)cc12 [P-0261, N-[2,4-difluoro-3-[5-(2-piperazin-1-ylpyrimidin-5-yl)-1H-pyrrolo[2,3-b]pyridine-3-carbonyl]phenyl]pyrrolidine-1-sulfonamide] | < 1
32 | CCCNS(=O)(=O)Nc1cccc(C(=O)c2c[nH]c3ncc(I)cc23)c1F [P-0117, [2-fluoro-3-(propylsulfamoylamino)phenyl]-(5-iodo-1H-pyrrolo[2,3-b]pyridin-3-yl)methanone] | > 1
33 | CN(CC1CC1)S(=O)(=O)Nc1cccc(C(=O)c2c[nH]c3ncc(-c4cnc(C5CC5)nc4)cc23)c1F [P-0084, 3-[3-[[cyclopropylmethyl(methyl)sulfamoyl]amino]-2-fluoro-benzoyl]-5-(2-cyclopropylpyrimidin-5-yl)-1H-pyrrolo[2,3-b]pyridine] | < 1
34 | CCC(C)S(=O)(=O)Nc1cccc(C(=O)c2c[nH]c3ncc(-c4cnc(C5CC5)nc4)cc23)c1F (stereo not shown) [P-0228, N-[3-[5-(2-cyclopropylpyrimidin-5-yl)-1H-pyrrolo[2,3-b]pyridine-3-carbonyl]-2-fluoro-phenyl]butane-2-sulfonamide] | < 1
